Data: US6995022B1, “Screening of xenobiotics and endogenous compounds for metabolic transformation, formation of toxic metabolites, and bioavailability” (Board of Trustees of the University of Illinois, priority 1998, dated 2006)

Experiments:
[1] = system: rat liver microsomes containing cytochromes P450 and microsomal glutathione S-transferase
Excerpt: Alternatively, reactive metabolites may be trapped as phase II conjugates such as glutathione adducts.
Glutathione adducts formed from reactive drugs or their activated metabolites in the ultrafiltrate may be trapped and concentrated on a trapping column and then analyzed using LC-MS or LC-MS-MS for identification of the metabolites and for the differentiation of isomeric products.

[2] = system: rat liver microsomal cytochromes P450; conditions: for extent of metabolism by cytochromes P450 indicated by high throughput assays: microsomes
Experimental: Chlorpromazine is an antidepressant-drug that undergoes extensive hepatic metabolism. […] The area under the curve for unreacted chlorpromazine is proportional to the amount of chlorpromazine consumed during the on-line metabolism experiment.
Pentoxyresorufin (1 μg) was injected into the ultrafiltration chamber containing hepatic microsomes as described herein.
Microsomes may be prepared from any types of cells or tissues, which are obtained from any species including humans. For the examples cited, male or female Sprague-Dawley rats (180-200 g) were obtained from Sasco Inc. (Omaha, Nebr.). Microsomes were prepared from rat liver, and protein and cytochrome P450 concentrations were determined using standard procedures (1). […] This washing step may be accelerated by using a higher flow rate, but care should be taken to avoid excessive pressure and rupture of the ultrafiltration membrane.
The ultrafiltration chamber (FIG. 1B) was built in-house out of polyetheretherketone (PEEK) and contained a Teflon®-coated magnetic stirring bar and a Viton® O-ring, which formed a seal around the ultrafiltration membrane. […] Chromatography tubing and fittings were made from polyetheretherketone (PEEK, Upchurch Scientific, Oak Harbor, Wash.).
NADPH and drug substrates were purchased from Sigma Chemical Company (St. Louis, Mo. All solvents were HPLC grade. Into a mobile phase consisting of 50 mM anmmonium acetate, pH 7.4, and 0.1 mM NADPH at a flow rate of 70 μL/min, chlorpromazine (3 μg) in 50 μL buffer was injected into the ultrafiltration chamber. Protonated molecules of chlorpromazine, cofactor NADPH, and the microsomal metabolic products were recorded continuously using positive ion electrospray mass spectrometry. In another experiment, 1 μg of pentoxyresorufin was injected into the ultrafiltration chamber containing hepatic microsomes as described above. […] In some experiments, NADPH was injected simultaneously with substrate instead of being added to the mobile phase.
Typically, a wide mass range was scanned by the mass spectrometer in order to identify the major metabolites (if unknown). Once the major metabolites are known or if only the compounds injected into the first chamber need to be analyzed, selected ion monitoring mass spectrometry is used to follow the appearance of metabolites, monitor the consumption of NADPH, and/or monitor the profile of unreacted compound(s).
The transfer line between the ultrafiltration chamber and the mass spectrometer was flushed for 1 min, then mass spectra were recorded for 2 min.

Caco-2 cells = type: in vitro ADME; conditions: human, Caco-2, 118 µM
Experimental: Bioavailability assays are generally carried out in one of two ways. In one type of assay, the chamber is loaded with cells (i.e., Caco-2 human intestinal epithelial cells) such that the volume of the cells is significant compared to the volume of the chamber (e.g., 1 million cells/mL), and a size exclusion experiment is carried out. (Hidalgo, et al. 1989). An aliquot of a drug mixture is injected through the chamber and the elution profile is recorded by the mass spectrometer detector. The mixture may contain a single drug or a mixture of drugs under investigation and two internal controls: The negative control compound (such as mannitol) is excluded from entering the cells; and the positive control compound (such as certain steroids) readily enters the cells. Compounds that are excluded from the cells are washed out of the ultrafiltration chamber faster and are detected first, while compounds that enter the cells are distributed into a larger volume within the chamber and require longer to elute. In this manner, quantitative bioavailability or absorption data may be determined. In another type of bioavailability assay, a monolayer of cells (i.e., Caco-2 cells) is grown on an ultrafiltration membrane, which is then mounted in the ultrafiltration chamber with the cells facing the interior of the chamber. […] Compounds that readily enter and pass through the cells are detected first. […]

cytochrome P450 isozymes = conditions: cited from earlier work

Compound | metabolism according to the literature (cytochrome P450 isozymes) | metabolites detected in high throughput metabolic screening [2] | extent of metabolism by cytochromes P450 indicated by high throughput assays [2] | effect on cytochrome P450 isozymes according to the literature (cytochrome P450 isozymes) | also measured
Cc1c[nH]c2ccccc12 [3-methylindole] | – | – | – | – | glutathione adducts detected [1]: observed
CCCCCOc1ccc2nc3ccc(=O)cc-3oc2c1 [Pentoxyresorufin] | – | – | – | – | metabolism in control without NADPH [2]: no metabolism occurred
CC(=O)Oc1ccccc1C(=O)O [aspirin] | – | – | – | – | relative elution rates aspirin/propranolol (ratio of slopes of ln [drug] vs. elution time) (Caco-2 cells): 1.6:1
CN(C)CCCN1c2ccccc2Sc2ccc(Cl)cc21 [chlorpromazine] | metabolized extensively | observed | extensive metabolism | – | –
O=C1C[C@@H](c2ccc(O)cc2)Oc2cc(O)cc(O)c21 [naringenin] | not metabolized | no metabolites | not | inhibit the action of certain cytochrome P450 isozymes | –
C=C[C@H]1C[N@@]2CC[C@H]1C[C@@H]2[C@@H](O)c1ccnc2ccc(OC)cc12 [quinidine] | not metabolized | no metabolites | not | inhibit the action of certain cytochrome P450 isozymes | –
